Data set [1] can be described thus: Loading of hydroxypropyl cyclodextrin solubilized SN-38 into LUV containing acetate-PEI salt. It is filed as physicochemical. To be noted: LUV 20 mM total lipid, 12 hours at room temperature. As to the method: Lipids are dissolved in ethanol at a concentration of 500 mM POPC/Cholesterol/PEG-DSPE: 3/2/0.15 (591 mg/mL total lipid) at 65° C. and the 9 volumes of the trapping agent solution, polyethyleneimine (PEI) MW 1300 titrated to pH 7.4 with glacial acetic acid to form the acetate polyethyleneimine salt, is heated to 65° C. then added to the ethanol/lipid solution also at 65° C. This mixture is vortexed and transferred to a 10 mL thermostatically controlled (65° C.) Lipex Extruder. The LUV are formed by extruding 10 times through polycarbonate membranes having 0.1 um pores. After extrusion, the LUV are cooled on ice. A transmembrane electrochemical gradient is formed by placing the liposomes in dialysis tubing having a molecular weight cut off of 12,000-14,000. The samples are dialyzed against 5 mM HEPES, 10% sucrose pH 6.5 (stirring at 4° C.) at volume that is 100-fold greater than the liposome sample volume. The dialysate is changed after 2 h then 4 more times after 12 h each. The conductivity of the liposome solution was measured and was indistinguishable from the dialysis medium ˜40 μS/cm.
The LUV (20 mM total lipid containing a greater concentration of acetate-PEI salt on the inside than on the outside) are mixed with the hydroxypropyl cyclodextrin solubilized SN-38 (24 mg/mL hydroxylpropylcyclodextrin and 2 mg/mL SN-38) and allowed to incubate for 12 hours at room temperature. […]

Data set [2] can be described thus: Encapsulation of aripiprazole from Abilify (SBECD solution) into LUV, liquid/liquid protocol. In kind it is physicochemical. The conditions noted are these: LUV HSPC/Cholesterol/PEG-DSPE. As to the method: (§1) A portion of the lyophilized cake of GEODON® (Pfizer) was weighed out and dissolved in deionized water. The amount of the active ingredient (ziprasidone) was calculated by multiplying the cake weight by 0.0625 and added to liposomes from a 1 mg/mL solution. In certain experiments the lyophilized cake was reconstituted with the aqueous liposome preparation at defined lipid to drug ratios (liquid/liquid system). In other cases the lyophilized cake was directly rehydrated with the liposome suspension (liquid/solid system). The LUV were diluted with 5 mM Hepes, 10% sucrose pH 6.5. The liposome/drug solution was transferred to a 65° C. bath and swirled every 30 s for the first 3 min and then swirled every 5 min over a total heating time of 30 min. After heating for 30 min all samples were placed on ice for 15 min. the loaded liposomes were vortexed and 100 μL of sample was kept as the “before column” and the rest purified by ion exchange chromatography and gel filtration chromatography. Amberlite IRA-67 anion exchange resin was prepared by washing with 1N NaOH, followed by 3 washes with ddH2O and 3 washes with 3N HCl. The resin was exhaustively washed with dH2O until the pH of the supernatant was neutral. The SBCD was removed by adding 70 mg of resin to the eppendorf containing the liposomes and mixed well. The LUV solution was then purified by gel filtration chromatography (Sephadex G25) to remove residual extraliposomal drug. The turbid liposome fraction was collected and analyzed by HPLC.
ABILIFY® Injection is available in single-dose vials as a ready-to-use, 9.75 mg/1.3 mL (7.5 mg/mL) clear, colorless, sterile, aqueous solution for intramuscular use only. […] The active ingredient in Abilify® (Bristol-Myers), aripiprazole (7.5 mg/mL) was introduced to the LUV (HSPC/Cholesterol/PEG-DSPE: 3/2/0.15 mole ratio) at a drug to total lipid ratio of 50 g drug/mol HSPC (drug to total lipid ratio (wt/wt) of 0.12) or 100 g/mol (0.24 wt/wt) or 200 g/mol (0.48 wt/wt). […]

A short description of data set [3]: Loading of carfilzomib from the lyophilized Kyprolis vial into the core of added LUV. It is filed as physicochemical. As to the method:
A 30 mL preparation of LUVs composed of HSPC/Cholesterol/PEG2000-DSPE at lipid concentration of 15 mM lipid (circa 300 mg lipid) is prepared by the extrusion process through 100 nm polycarbonate membranes in a 250 mM ammonium sulfate solution to yield a 100 nm diameter LUV suspension of encapsulated ammonium sulfate. The LUV are dialyzed against 500 volumes of 0.15 M NaCl to remove non-encapsulated ammonium sulfate. The liposome suspension is then passed through a 0.2 micron sterile membrane into a sterile tube. The liposome solution (29 mL) is added aseptically to the vial containing 60 mg of carfilzomib at room temperature. The vial is gently mixed not shaken, for about 1 minute, or until the cake or powder is completely solubilized. The rehydrated solid is incubated for 40 minutes at 37° C. The carfilzomib is substantially loaded (>60%) into the core of the liposome at the end of the incubation period. The 100 nm diameter of the liposomes is not altered by this rehydration incubation process. The temperature of the vial is then reduced to 4° C. until the mixture of CD, drug-loaded liposome are injected into the subject.
The pharmacokinetic behavior of preparation of carfilzomib can be easily modulated by adjusting the amount of LUV containing ammonium sulfate or triethylamine sulfate that are added to the vial of Kyprolis®. […]

For data set [4] the following is noted: cited from earlier work.
A short description of data set [5]: Incorporation of maropitant from Cerenia (SBCD) into lyophilized MLV with encapsulated triethylamine sulfate. It is filed as physicochemical. To be noted: MLV POPC/Chol/DSPG, 60° C. 30 minutes. How it is done:
Maropitant citrate is used for the prevention of acute vomiting in dogs and cats. The MLV formulation described in example 4 is prepared with 250 mM triethylamine sulfate in place of ammonium sulfate. The formulation is lyophilized to provide a cake consisting of 120 mg sucrose and a 1.2 μmoles total lipid of a liposome with a lipid composition of POPC/Chol/DSPG mole ratio 3/2/0.15 with a higher concentration of triethylamine sulfate on the inside than on the outside. The contents of the 20 mL Cerenia® Injectable Solution vial which contains 10 mg maropitant, 63 mg sulphobutylether-beta-cyclodextrin, 3.3 mg meta-cresol per mL is slowly added to the vial of lyophilized liposomes and the vial is slowly rotated to rehydrate the MLV at room temperature. The milky white mixture is allowed to stand at 60° C. for 30 minutes. The percent of the maropitant that is incorporated into the liposome is about 60% of the total maropitant in the vial. […] Approximately 40% of the drug remains associated with the SBCD. This formulation is suitable for subcutaneous injection to prevent vomiting associated with chemotherapy.

Data set [6] can be described thus: Encapsulation of ziprasidone from Geodon (SBCD complex) into ammonium sulfate LUV liposomes, HPLC after purification. To be noted: 65° C. 30 min; for % ziprasidone entrapped in liposome from suspension of ziprasidone: liquid/liquid system; for % ziprasidone entrapped in liposome from reconstitution of Geodon cake: liquid/solid system. It is filed as physicochemical. How it is done: Alternatively, lipids were dissolved in ethanol at a concentration of 500 mM HSPC/Cholesterol/PEG-DSPE: 3/2/0.15 (591 mg/mL total lipid) at 65° C. and the 9 volumes of the trapping agent solution heated to 65° C. was added to the ethanol/lipid solution also at 65° C. and the mixture was vortexed and transferred to a 10 mL thermostatically controlled (65° C.) Lipex Extruder. The LUV were formed by extruding 10 times through polycarbonate membranes having 0.1 um pores. After extrusion the liposomes were cooled on ice. The transmembrane electrochemical gradient was formed by purification of the liposomes by dialysis in dialysis tubing having a molecular weight cut off of 12,000-14,000. The samples are dialyzed against 5 mM HEPES, 10% sucrose pH 6.5 (stirring at 4° C.) at volume that is 100 fold greater than the sample volume. The dialysate was changed after 2 h then 4 more times after 12 h each. The conductivity of the liposome solution was measured and was indistinguishable from the dialysis medium […].
The HPLC analysis of all other drugs used (such as ziprasidone, ariprazole, voriconazole etc) was performed on the same system as described for analysis of cholesterol. The mobile phase consists of −A=0.1% TFA, B=0.1% TFA/MeOH with a gradient elution starting at 40% B and increasing to 70% B in 7 min with 6 min equilibration back to 40% B. The flow rate is 1.0 mL/min, column temperature is 30 C, 10 μL injection and detection by absorbance at 254 nm. The retention times were as follows: ziprasidone 5.73 min, ariprazole 8.12 min, voriconazole 8.81 min.
as §1

The mark [7] stands for this setting: input drug-to-lipid 100 ug/umol.
The mark [8] stands for this setting: input drug-to-lipid 200 ug/umol.

Structures are written as SMILES. Several values for one entry are separate records, joined by “and”; a condition that tells them apart may be missing. Equal values may be shown once.

On to `CCc1c2c(nc3ccc(O)cc13)-c1cc3c(c(=O)n1C2)COC(=O)[C@]3(O)CC` [SN-38, 7-Ethyl-10-Hydroxy-Camptothecin], for which the “SN-38 transferred into the liposome, % of the added SN-38” value in data set [1] was “approximately 50%”.

On to `O=C1CCc2ccc(OCCCCN3CCN(c4cccc(Cl)c4Cl)CC3)cc2N1` [aripiprazole], for which the “% aripiprazole entrapped in liposome when transferred from Abilify” value in data set [2] (input drug-to-lipid 50 ug/umol) is 60.16 ± 3.57%; in data set [2] (setting [7]), 48.4% and 48.36 ± 3.78%; in data set [2] (setting [8]), 43.2% and 43.22 ± 2.09%.

On to `CC(C)C[C@H](NC(=O)[C@H](CCc1ccccc1)NC(=O)CN1CCOCC1)C(=O)N[C@@H](Cc1ccccc1)C(=O)N[C@@H](CC(C)C)C(=O)[C@@]1(C)CO1` [carfilzomib], for which the “carfilzomib loaded into the core of the liposome” value in data set [3] (Kyprolis vial 60 mg + 29 mL LUV (circa 300 mg lipid), ammonium sulfate, 40 minutes at 37° C.) is given as greater than 60%. The “amount of carfilzomib that remains complexed to the CD, fraction of total amount in the vial” value in data set [3] (liposomes added decreased from 300 mg to 200 mg of total lipid) is reported as “about one-half”. For the same molecule, in data set [4], the solubility in water entry is “less than 10 micrograms/mL”.

On to `COc1ccc(C(C)(C)C)cc1CN[C@H]1C2CCN(CC2)[C@H]1C(c1ccccc1)c1ccccc1` [maropitant], for which, in data set [5], the “percent of the drug remaining associated with the SBCD” value is on record as “Approximately 40%”; the “percent of the maropitant incorporated into the liposome, of total maropitant in the vial” value is “about 60%”; the “resulting drug to lipid ratio” value was “about 140 grams/mole lipid”.

`O=C1Cc2cc(CCN3CCN(c4nsc5ccccc45)CC3)c(Cl)cc2N1` [ziprasidone]: the “% ziprasidone entrapped in liposome from suspension of ziprasidone” value was 87.92 ± 2.35% in data set [6] (input drug-to-lipid 50 ug/umol); 84.24 ± 3.14% in data set [6] (setting [7]); 80.38 ± 3.61% in data set [6] (setting [8]); 80.4% in data set [6] (input drug-to-lipid 200 ug/umol, listed as Geodon). Moreover, the “% ziprasidone entrapped in liposome from reconstitution of Geodon cake” value in data set [6] (input drug-to-lipid 50 ug/umol) was 90.42 ± 2.91%; in data set [6] (input drug-to-lipid 50 ug/umol, listed as Geodon) it was 90.4%; in data set [6] (setting [7]), 75.50 ± 2.91%; in data set [6] (input drug-to-lipid 100 ug/umol, listed as Geodon) it was 75.5%; in data set [6] (setting [8]), 62.68 ± 3.27%; in data set [6] (input drug-to-lipid 400 ug/umol) it was 67.40 ± 3.88%. The “% ziprasidone entrapped in liposome from reconstitution of Geodon cake” value in data set [6] (input drug-to-lipid 400 ug/umol, listed as Geodon) worked out at 67.4%; in data set [6] (input drug-to-lipid 800 ug/umol) it was 41.38 ± 0.81%.

Source of the values: patent publication US20140220112A1, “TRANSFORMATION OF DRUG CYCLODEXTRIN COMPLEX COMPOSITIONS INTO COMPOSITIONS OF MIXTURES OF LIPID VESICLE ENCAPSULATED DRUG AND CYCLODEXTRIN DRUG COMPLEXES” (Zoneone Pharma, Inc., priority 2013, published 2014).
